According to patent US20090022803A1, “Oral Formulations For Delivery of Catecholic Butanes Including Ndga Compounds” (priority 2005, published 2009):
Like-named read-outs stand apart in the source and are kept apart here.

Type: physicochemical
Method: A 10 mL solution of M4N at a concentration of about 10 mg/mL in 40% BP-β-CD was made as follows. About 10 mL of the 40% HP-β-CD solution were added to a glass beaker containing a stir bar. The beaker was placed on a magnetic plate and the stir bar was set to stir at medium speed. About […] of M4N were slowly added to the 40% HP-β-CD in the center of the beaker with the aid of a spatula. The M4N/40% HP-β-CD mixture was stirred for 2 hr or until all M4N was uniformly suspended without any clumps being present. The M4N/40% HP-β-CD mixture was optionally heated at 80° C. for about 30 min. (or longer if a larger volume of solution was desired, for example, 1 hr at 80° C. for 100 mL of the M4N/HP-β-CD mixture), or longer as needed to ensure complete dissolution of M4N. […] The final M4N/40% HP-β-CD solution was stored at room temperature and was kept protected from light. This process may be scaled up or down to obtain the requisite volume or concentration of M4N. Formulations containing M4N in other cyclodextrin solutions may be similarly made, such as, for example, by substituting HP-β-CD in the process described above with other cyclodextrins. […]
A 10 mL solution of M4N at a concentration of about 10 mg/mL in 50% HP-β-CD/0.5% HPMC was made as follows. About 10 mL of the 50% HP-β-CD/0.5% HPMC solution were added to a glass beaker containing a stir bar. The beaker was placed on a magnetic plate and the stir bar was set to stir at medium speed. About 100 mg of M4N were slowly added to the 50% HP-β-CD/0.5% HPMC in the center of the beaker with the aid of a spatula. The M4N/50% HP-β-CD/0.5% HPMC mixture was stirred for 24 hr or until all M4N was uniformly suspended without any clumps being present. The M4N/50% HP-β-CD/0.5% HPMC mixture was heated at about 90° C. for about 30 min. (or longer if a larger volume of solution was desired, for example, 1 hr at 90° C. for 500 mL of the M4N/50% HP-β-CD/0.5% HPMC mixture), or longer as needed to ensure complete dissolution of M4N. […] The final M4N/50% HP-β-CD/0.5% HPMC solution was stored at room temperature and was kept protected from light.
A 10 mL solution of M4N at a concentration of about 20 mg/mL in 5% EC (w/v) (the “EC formulation”) was made as follows. About 10 mL of 5% EC formulation, made as described above, were added to a glass beaker containing a stir bar. The beaker was placed on a magnetic plate and the stir bar was set to stir at medium speed, and covered with a round Teflon® cover. About 200 mg of M4N were slowly added to the 5% EC formulation in the center of the beaker with the aid of a spatula to prevent M4N from sticking to the beaker wall. The M4N/EC mixture was stirred for 2 hr or until all M4N had dissolved or was uniformly suspended without any clumps being present. The M4N/EC mixture was heated at about 60° C. for about 30 min. (or longer if a larger volume of solution was desired, for example, 1 hr at 60° C. for 500 mL of the M4N/EC mixture), or longer as needed to ensure complete dissolution of M4N. […] The final M4N/EC solution was stored at room temperature and was kept protected from light.
A 10 mL solution of M4N at a concentration of about 50 mg/mL in sesame oil was made as follows. About 10 mL of sesame oil were added to a glass beaker containing a stir bar. The beaker was placed on a magnetic plate and the stir bar was set to stir at medium speed. About 500 mg of M4N were slowly added to the sesame oil in the center of the beaker with the aid of a spatula to prevent M4N from sticking to the beaker wall. The M4N/sesame oil mixture was stirred for about 2 hr or until all M4N had dissolved or was uniformly suspended without any clump being present. The M4N/sesame oil mixture was heated at about 60° C. for about 30 min. (or longer if a larger volume of solution was desired, for example, 1 hr at 60° C. for 500 mL of the M4N/sesame oil mixture), or longer as need to ensure complete dissolution of M4N. […]

[1] = M4N 13.3 mg/mL in 27% HP-β-CD, 33% PEG 400 (v/v)
[2] = M4N 13.3 mg/mL in 27% HP-β-CD, 33% Tween ® 80 (v/v)
[3] = M4N 16.7 mg/mL in 13% HP-β-CD, 67% PEG 300 (v/v)
[4] = M4N 19.3 mg/mL in 10% HP-β-CD, 77% PEG 300 (v/v)
[5] = M4N 50 mg/mL in 50% HP-β-CD, 1.25% PVP (w/v)
Wherever Dissolution After Cool Down is given: key: N represents 'No'; Y represents 'Yes.'.

COc1ccc(C[C@@H](C)[C@@H](C)Cc2ccc(OC)c(OC)c2)cc1OC [Formulation M4N, meso-1,4-bis(3,4-dimethoxyphenyl)-2,3-dimethylbutane]
Y at 60°: Dissolution After Heating at X° C. (M4N 13.3 mg/mL in 27% HP-β-CD, 33% PEG 400 (v/v), 60°) | Dissolution After Heating at X° C. (M4N 13.3 mg/mL in 27% HP-β-CD, 33% Tween ® 80 (v/v), 60°) | Dissolution After Heating at X° C. (M4N 16.7 mg/mL in 13% HP-β-CD, 67% PEG 300 (v/v), 60°) | Dissolution After Heating at X° C. (M4N 19.3 mg/mL in 10% HP-β-CD, 77% PEG 300 (v/v), 60°)
Y: Dissolution After Cool Down [1] | Dissolution After Cool-Down (M4N 20 mg/mL in 5% EC in EtOH) | Dissolution After Cool-Down (M4N 20 mg/mL in Corn Oil) | Dissolution After Cool-Down (M4N 20 mg/mL in Sesame Oil) | Dissolution After Cool-Down (M4N 24.3 mg/mL in 75% Sesame Oil, 9% Tween ® 20, 16% Glycerol) | Dissolution After Cool-Down (M4N 29 mg/mL in 89% Sesame Oil, 11% Tween ® 20) | Dissolution After Cool-Down (M4N 30 mg/mL in Sesame Oil) | Dissolution After Cool-Down (M4N 40 mg/mL in 50% Peppermint Oil, 50% PEG 300) | Dissolution After Cool-Down (M4N 40 mg/mL in 50% Peppermint Oil, 50% PEG 400) | Dissolution After Cool-Down (M4N 40 mg/mL in 50% Peppermint Oil, 50% Sesame Oil) | Dissolution After Cool-Down (M4N 40 mg/mL in 50% Peppermint Oil, 50% Tween ® 20) | Dissolution After Cool-Down (M4N 40 mg/mL in Corn Oil) | Dissolution After Cool-Down (M4N 40 mg/mL in Peppermint Oil)
N at 80°: Dissolution After Heating at X° C. (M4N 14 mg/mL in 40% HP-β-CD, 80°) | Dissolution After Heating at X° C. (M4N 16 mg/mL in 40% HP-β-CD, 80°) | Dissolution After Heating at X° C. (M4N 20 mg/mL in 40% HP-β-CD, 80°) | Dissolution After Heating at X° C. (M4N 50 mg/mL in 40% HP-β-CD, 80°)
Suspension: Dissolution After Rotation (M4N 20 mg/mL in 50% HP-β-CD, 0.5% CMC) | Dissolution After Rotation (M4N 20 mg/mL in 50% HP-β-CD, 0.5% HPMC, other experiment, no heat) | Dissolution After Rotation (M4N 50 mg/mL in 50% HP-β-CD, 0.5% HPMC, other experiment, no heat)
N at 90°: Dissolution After Heating at X° C. (M4N 20 mg/mL in 30% HP-β-CD, 90°) | Dissolution After Heating at X° C. (M4N 20 mg/mL in 50% HP-β-CD, 90°) | Dissolution After Heating at X° C. (M4N 50 mg/mL in 15% α-CD, 90°) | Dissolution After Heating at X° C. (M4N 50 mg/mL in 30% HP-β-CD, 90°) | Dissolution After Heating at X° C. (M4N 50 mg/mL in 50% HP-β-CD, 90°)
N: Dissolution After Rotation [1] | Dissolution After Cool Down [2] | Dissolution After Rotation [2] | Dissolution After Rotation (M4N 14 mg/mL in 40% HP-β-CD) | Dissolution After Rotation (M4N 16 mg/mL in 40% HP-β-CD) | Dissolution After Cool Down [3] | Dissolution After Rotation [3] | Dissolution After Cool Down [4] | Dissolution After Rotation [4] | Dissolution After Rotation (M4N 20 mg/mL in 5% EC in EtOH) | Dissolution After Rotation (M4N 20 mg/mL in 30% HP-β-CD) | Dissolution After Rotation (M4N 20 mg/mL in 40% HP-β-CD) | Dissolution After Rotation (M4N 20 mg/mL in 50% HP-β-CD) | Dissolution After Cool-Down (M4N 30 mg/mL in 5% EC in EtOH) | Dissolution After Rotation (M4N 30 mg/mL in 5% EC in EtOH) | Dissolution After Cool-Down (M4N 30 mg/mL in Olive Oil) | Dissolution After Cool-Down (M4N 30 mg/mL in Soybean Oil) | Dissolution After Cool-Down (M4N 40 mg/mL in 85% Sesame Oil, 15% Tween ® 20) | Dissolution After Rotation (M4N 50 mg/mL in 2.3% HPMC) | Dissolution After Cool-Down (M4N 50 mg/mL in 5% EC in EtOH) | Dissolution After Rotation (M4N 50 mg/mL in 5% EC in EtOH) | Dissolution After Rotation (M4N 50 mg/mL in 15% α-CD) | Dissolution After Rotation (M4N 50 mg/mL in 20% HP-β-CD in saline) | Dissolution After Rotation (M4N 50 mg/mL in 30% HP-β-CD) | Dissolution After Rotation (M4N 50 mg/mL in 40% HP-β-CD) | Dissolution After Rotation (M4N 50 mg/mL in 50% HP-β-CD) | Dissolution After Rotation (M4N 50 mg/mL in 50% HP-β-CD, 0.5% HPMC) | Dissolution After Heating at X° C. [5] | Dissolution After Rotation [5] | Dissolution After Cool-Down (M4N 50 mg/mL in Camillia Oil)
